# Measured values: patent publication US12540150B1, “Fluorogenic probe using a Mislow-Evans rearrangement for real-time imaging of hydrogen peroxide” (University of Pittsburgh—Of the Commonwealth System of …, priority 2020, dated 2026)
# “And” between values parts separate entries of the source, which are not always exact repeats. Equal values may be shown once.
# Legend:
# [1] = Stability of 1 under ambient conditions by 1H NMR; type: physicochemical; settings: room temperature, in air
# Excerpt: Since organic selenides are prone to oxidation in air, the stability of 1 under ambient conditions was investigated. To study the stability of 1, the ^1H NMR spectra of 1 in DMSO-d6 were obtained at specified intervals (days 1, 7, 14, 21, 30 and 60). The solution was left at room temperature and in air throughout the entire period.
# [drawing 26] were observed. […] Even so, the compound was quite resistant to oxidative decomposition up to 60 days as manifested by the presence of only less than 10% acrolein.
# [2] = Selectivity of 1 against various ROS and RNS (FIG. 14B); settings: O2^·−, ^1O2, ·OH, ClO^−, ONOO^−, tBuOOH, NO3^−, NO2, NO·
# Procedure: (§1) Following the concentration dependence studies, the selectivity of 1 was assessed against O2^·−, ^1O2, ·OH, ClO^−, ONOO^−, 'BuOOH, NO3^−, NO2, and NO·. […] The production of some of these ROS required H2O2 as a reagent or generated H2O2 as a product, for which we carefully performed control experiments as detailed below. For example, a solution of 100 μM 1 in ethanol (20 μL) was added to 5:95 methanol/50 mM phosphate pH 7 buffer (140 μL). […] A control containing 100 μM 1 in ethanol (20 μL), 5:95 methanol/50 mM phosphate pH 7 buffer (160 μL), and 700 mM H2O2 (20 μL) was also generated. The solutions were allowed to incubate at 25° C. for 15 min prior to measuring fluorescence. […] Therefore, 1 is selective for H2O2 over O2^·−.
# [3] = Selectivity of 1: reaction with O2^·−; settings: for Fluorescence Intensity: 15 min
# Procedure: as §1
# [4] = system: RAW cells; test: Imaging of endogenous H2O2 upon ionomycin stimulation in RAW cells; type: cell-based
# Excerpt: After detecting exogenously added H2O2 in cells, the focus shifted to more biologically relevant, endogenous H2O2. It was attempted to monitor endogenous H2O2 production upon stimulation with ionomycin in RAW cells. […] In contrast, with probe 1, a significant response was observed within 30 s after the addition of ionomycin relative to the baseline fluorescence (FIG. 24B-C) and peaked at 48 s.
# [5] = system: zebrafish; test: Zebrafish tail wound-healing model imaging of H2O2; type: in vivo; settings: three-day post-fertilization zebrafish embryos, 1 mM 1 for 2 h
# Excerpt: H2O2 has been recognized as a critical signaling molecule for the recruitment of immune cells for wound regeneration. To date, only genetically encoded protein-based fluorescent probes have been able to illuminate the spatiotemporal dynamics of H2O2 for wound healing models in zebrafish. It was hypothesized that our method might be rapid enough to match the protein-based imaging in vivo. As a platform to test this hypothesis, 1 was applied to image a zebrafish tail wound-healing model.
# Three-day post-fertilization zebrafish embryos were removed from their chorion and allowed to swim in 1 mM 1 for 2 h (0.1% v/v DMSO), leading to effective dye loading. Following this, the fish were anesthetized and mounted in agar. The tail fins were clipped with a razor blade.
# Fluorescence images were obtained every 60 s for 60 min using an inverted Nikon TiE fluorescent microscope (Nikon Inc., Melville, NY) equipped with a 20× 0.75 NA lens and NIS Elements Software. The sample was excited using the 470 nm line of a Lumencor diode-pumped light engine (SpectraX, Lumencor Inc., Beaverton OR), and the fluorescence signals were detected using an ET-GFP filter set (Chroma Technology Corp) and ORCA-Flash 4.0 sCMOS camera (HAMAMATSU Corporation, Bridgewater, NJ).
# [6] = Selectivity of 1: reaction with ClO^−; settings: for Fluorescence Intensity: pH 7, 25° C., 15 min
# Procedure: Next, it was tested whether OCl^− and ONOO^− (peroxynitrite), would react with 1. A solution of 0, 1, 10, or 22 μM ONOO— in 0.3 M NaOH (20 μL) or 1, 10, 100, or 1000 μM NaOCl in water (20 μL) was added to the wells of a black 96-well plate. A solution of 10 μM 1 in DMSO (560 μL) and 5:95 MeCN/1.2 M phosphate pH 7 buffer (4.48 mL) was made; this solution (180 μL) was transferred to each of the wells. The samples were allowed to incubate at 25° C. for 15 min before the fluorescence was measured. […] This may be attributed to trace amounts of H2O2 in the ONOO^− solution.
# [7] = system: endothelial cells; test: Localization of 1 in endothelial cells with MitoTracker Red, ionomycin stimulation; type: cell-based; settings: ionomycin 10 μM
# Procedure: To study the localization of 1, endothelial cells were simultaneously incubated with 1 μM MitoTracker® Red FM (ThermoFisher Scientific) for 20 min at 37° C. (FIG. 24D). The dish was inserted in a closed, thermo-controlled (37° C.) stage top incubator (Tokai Hit Co., Shizuoka-ken, Ja-pan) atop the motorized stage of an inverted Nikon TiE fluorescent microscope (Nikon Inc., Melville, NY) equipped with a 60× oil immersion optic (Nikon, CFI PlanFluor, NA 1.49) and NIS Elements Software. The sample was excited using the 555 nm line and detected using a TRITC filter set.
# [8] = system: HeLa cells; test: Imaging of exogenously added H2O2 in HeLa cells; type: cell-based; settings: 0.5 μM 1, 37° C.
# Procedure: It was then attempted to image H2O2 within cells. HeLa cells were seeded on 35-mm glass bottom dishes (MatTek Corporation, Ashland, MA) and incubated with 0.5 μM 1 in 0.1% DMSO in DMEM (10% FBS with penicillin/streptomycin) prior to imaging. After washing with HBSS and replacing the media, H2O2 was added. The dish was inserted in a closed, thermo-controlled (37° C.) stage top incubator (Tokai Hit Co., Shizuoka-ken, Ja-pan) atop the motorized stage of an inverted Nikon TiE fluorescent microscope (Nikon Inc., Melville, NY) equipped with a 60× oil immersion optic (Nikon, CFI PlanFluor, NA 1.49) and NIS Elements Software. The sample was excited using the 470 nm line of a Lumencor diode-pumped light engine (SpectraX, Lumencor Inc., Beaverton OR). Fluorescence was detected using an ET-GFP filter set (Chroma Technology Corp) and ORCA-Flash 4.0 sCMOS camera (HAMAMATSU Corporation, Bridgewater, NJ).
structure (smiles),measurement,setting,value
"Oc1ccc2c(c1)Oc1cc(O/C=C/C[Se]c3ccccc3)ccc1[C@@]21OCc2ccccc21 [Compound 1, (S,E)-6′-((3-(Phenylselanyl)prop-1-en-1-yl)oxy)-3H-spiro[isobenzofuran-1,9′-xanthen]-3′-ol]",half-life,"[1]; DMSO-d6 solution, read-out: half-life of cis-trans isomerization of the enol ether (converted)",60 days
same,acrolein present (oxidative decomposition),"[1]; [D6]DMSO, up to 60 days",less than 10%
same,reaction with other ROS and RNS relative to H2O2,[2],little reaction was observed
same,reaction with O2^·−,[3],did not react
same,Fluorescence Intensity,"[3]; KO2 + 10 U/mL catalase, pH 7, 25° C.","104,768 and 72,151 and 98,514"
same,Fluorescence Intensity,"[3]; KO2 + 10^4 U/mL catalase, pH 7, 25° C.","63,553 and 41,950 and 67,009"
same,Fluorescence Intensity,"[3]; KO2, phosphate pH 7, 25° C.","106,099 and 92,938 and 99,300"
same,time of fluorescence peak after the addition of ionomycin,[4],48 s
same,time to significant response after the addition of ionomycin,"[4]; 0.5 μM 1, ionomycin 10 μM",≤ 30 s
same,time of maximum fluorescence after tail snipping,[5],10 to 20 min
same,fluorescence change with increasing concentrations of OCl^−,[6],No statistically significant increase in fluorescence intensity
same,Fluorescence Intensity,[6]; 100 nM NaOCl,"33,503 and 25,413 and 28,088"
same,Fluorescence Intensity,[6]; 1.0 μM NaOCl,"28,551 and 25,590 and 33,211"
same,Fluorescence Intensity,[6]; 10 μM NaOCl,"41,611 and 35,271 and 35,308"
same,Fluorescence Intensity,[6]; 100 μM NaOCl,"46,362 and 40,070 and 41,695"
same,Fluorescence Intensity,[6]; no ROS,"30,591 and 24,478 and 26,025"
same,time after the addition of ionomycin of first image showing increased fluorescence,[7],≤ 8 s
same,time to significant increase in fluorescence after H2O2 addition,[8],≤ 30 s
